{
  "source": "patent US12365674B2",
  "about": "“Inhibitors of histone deacetylase useful for the treatment or prevention of HIV infection” (Merck Sharp & Dohme LLC, priority 2019, dated 2025)",
  "assay_type_in_all_cases": "biochemical",
  "key": {"human HDAC1": {"target": "T1, human HDAC1 (Homo sapiens, UniProt Q13547)", "T1 construct": "Full length human HDAC1-FLAG was stably expressed in HEK-293F cells; host or cells: HEK-293F cells", "T1 sequence (Q13547 whole entry)": "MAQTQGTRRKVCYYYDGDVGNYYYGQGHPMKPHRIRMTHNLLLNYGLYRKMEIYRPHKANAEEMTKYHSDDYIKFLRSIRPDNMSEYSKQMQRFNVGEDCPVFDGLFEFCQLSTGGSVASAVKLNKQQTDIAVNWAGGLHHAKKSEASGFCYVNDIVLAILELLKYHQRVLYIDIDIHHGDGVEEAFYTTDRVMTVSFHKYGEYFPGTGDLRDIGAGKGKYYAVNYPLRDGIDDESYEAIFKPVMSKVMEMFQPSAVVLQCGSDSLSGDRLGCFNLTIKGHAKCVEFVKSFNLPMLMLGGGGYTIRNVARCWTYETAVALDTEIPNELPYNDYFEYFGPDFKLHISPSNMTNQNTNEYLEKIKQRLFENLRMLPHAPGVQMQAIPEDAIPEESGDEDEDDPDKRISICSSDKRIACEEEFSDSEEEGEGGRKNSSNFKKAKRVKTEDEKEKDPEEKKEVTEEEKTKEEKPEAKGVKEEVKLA", "test": "Human HDAC enzyme inhibitor Fluor-de-Lys assay, HDAC1", "settings": "0.3 nM enzyme, 20 μM substrate BML-KI104, 3 h pre-incubation, 60 min reaction; read-out: HDAC1_IC50", "excerpt": "(§1) Recombinant human HDAC8 (catalog number BML-SE145-0100) and HDAC10 (catalog number BML-SE559-0050) enzymes, HDAC substrates BML-KI104 and BML-KI178, and HDAC developer solutions BML-KI105 and BML-KI176 were purchased from Enzo Life Sciences (Farmingdale, NY). Recombinant human HDAC5 and HDAC11 were purchased from BPS Bioscience (San Diego, CA)(catalog numbers 50045 and 50021). Substrate Boc-Lys(TFA)-AMC was obtained from Bachem (Bupendorf, Switzerland) (catalog number 1-1985). HDAC inhibitor suberoylanilide hydroxamic acid (SAHA) was obtained from Indofine (Hillsborough Township, NJ) and trichostatin A (TSA) was obtained from Sigma-Aldrich (St. Louis, MO). […] HEPES pH 8.0 was obtained from Boston BioProducts (Ashland, MA), Tween-20 from Fisher Scientific (Hampton, NH)(catalog number BP337), TCEP from Calbiochem and 7.5% bovine serum albumin (BSA) from Life Technologies (Carlsbad, CA) (catalog number 15260037). 384-well, black assay plates were obtained from Corning (Corning, NY) (catalog number 3575).\n(§2) Recombinant human HDAC1, HDAC2, and HDAC3/SMRT heterodimer were prepared by Merck Research Laboratories. […] The eluted protein was then passed over an anti-HDAC1 immunoaffinity column to remove any complexes containing HDAC1. […]\n(§3) The histone deacetylase activities of HDAC1, HDAC2, HDAC3, HDAC6, and HDAC8 were measured in modified Fluor-de-Lys assays in 384-well format. In this assay, HDAC enzymes are initially incubated with an ε-acetyl (or -trifluoroacetyl)-L-lysine-containing substrate with a C-terminal amide having aminomethylcoumarin as the amine component. HDACs cleave the ε-acetyl group, rendering the resulting product susceptible to AMC cleavage by trypsin. The released AMC is then detected by its fluorescence.\n(§4) The HDAC 1, 2 assays employed buffer A, which contained 20 mM HEPES, pH 8.0, 1 mM MgCl2, 137 mM NaCl, 2.7 mM KCl, 0.05% BSA. The HDAC3/SMRT assay employed buffer B, consisting of 20 mM HEPES, pH 8.0, 1 mM MgCl2, 50 mM NaCl, 2.7 mM KCl, 0.05% BSA, 0.005% Tween 20, and 10 μM IP4. The HDAC6 assay employed buffer C, consisting of 20 mM HEPES, pH 8.0, 1 mM MgCl2, 137 mM NaCl, 2.7 mM KCl, 0.5 mM TCEP (Calbiochem) and 0.05% BSA. The HDAC8 assay employed buffer D, consisting of 20 mM HEPES, pH 8.0, 1 mM MgCl2, 100 mM NaCl, 20 mM KCl, 0.1% n-octyl-β-D-glucoside (Anatrace, Maumee, OH) and 0.05% BSA. All steps were performed at room temperature (23° C.). The assay was performed by pre-incubating serial dilutions of test compounds with the target HDAC prior to initiation with substrate. Each compound was titrated in a 10-point dose response, using a 1:3 fold dilution scheme, with 0.15 ul of solution added by ECHO555 to the plate, followed by the addition of 20 μl of the appropriate HDAC isoform diluted in appropriate assay buffer. […] Final conditions used for each assay were: 1. HDAC 1, 0.3 nM total enzyme, 20 μM substrate BML-K1104; 2. HDAC 2, 1.5 nM total enzyme, 40 μM substrate BML-K1104; 3. HDAC 3/SMRT, 0.3 nM total enzyme, 20 μM substrate BML-K1104; 4. HDAC 6, 1.3 nM total enzyme, 2.5 μM substrate BML-K1104; 5. HDAC 8, 1.3 nM total enzyme, 200 μM substrate BML-K1178; the final high dose of test compound was 30 μM. […] The reactions were stopped and developed by addition of 30 ul of HDAC developer solution containing a saturating level of HDAC inhibitor as follows: 1."}, "human HDAC2": {"target": "T2, human HDAC2 (Homo sapiens, UniProt Q92769)", "T2 construct": "Full length human HDAC2-FLAG was expressed in baculovirus infected Sf9 cells; host or cells: baculovirus infected Sf9 cells", "T2 sequence (Q92769 whole entry)": "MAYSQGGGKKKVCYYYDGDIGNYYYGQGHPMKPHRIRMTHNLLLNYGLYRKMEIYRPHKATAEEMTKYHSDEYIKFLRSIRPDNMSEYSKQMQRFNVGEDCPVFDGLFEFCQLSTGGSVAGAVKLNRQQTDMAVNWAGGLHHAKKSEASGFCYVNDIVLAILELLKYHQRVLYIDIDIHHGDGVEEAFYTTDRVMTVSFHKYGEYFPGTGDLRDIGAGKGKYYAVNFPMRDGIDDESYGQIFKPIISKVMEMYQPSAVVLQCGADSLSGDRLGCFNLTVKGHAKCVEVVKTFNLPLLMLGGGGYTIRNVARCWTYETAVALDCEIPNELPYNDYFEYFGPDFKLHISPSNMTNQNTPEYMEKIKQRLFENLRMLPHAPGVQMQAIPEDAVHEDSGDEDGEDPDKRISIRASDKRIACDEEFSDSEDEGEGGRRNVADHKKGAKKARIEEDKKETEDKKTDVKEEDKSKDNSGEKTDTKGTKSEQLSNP", "test": "Human HDAC enzyme inhibitor Fluor-de-Lys assay, HDAC2", "settings": "1.5 nM enzyme, 40 μM substrate BML-KI104, 3 h pre-incubation, 60 min reaction; read-out: HDAC2_IC50", "excerpt": "as §1, §2, §3, §4"}, "[1]": {"target": "T3, human HDAC3/SMRT heterodimer (Homo sapiens, UniProt O15379)", "T3 construct": "Full length human HDAC3-FLAG was expressed in HEK-293F cells along with SMRT; host or cells: HEK-293F cells", "T3 sequence (O15379 whole entry)": "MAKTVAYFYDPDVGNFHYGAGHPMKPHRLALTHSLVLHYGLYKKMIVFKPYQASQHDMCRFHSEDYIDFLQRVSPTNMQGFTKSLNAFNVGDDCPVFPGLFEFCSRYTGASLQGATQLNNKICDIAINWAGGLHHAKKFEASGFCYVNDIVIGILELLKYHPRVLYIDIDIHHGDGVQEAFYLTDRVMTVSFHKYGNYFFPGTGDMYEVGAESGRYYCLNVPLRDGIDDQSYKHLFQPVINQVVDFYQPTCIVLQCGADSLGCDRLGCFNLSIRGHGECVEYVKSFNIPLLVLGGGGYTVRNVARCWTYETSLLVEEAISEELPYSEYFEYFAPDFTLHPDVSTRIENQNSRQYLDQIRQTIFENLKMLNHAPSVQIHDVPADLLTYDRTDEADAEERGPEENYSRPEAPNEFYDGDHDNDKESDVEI", "T3 sequence (Q9Y618 1-899 partner limits assumed)": "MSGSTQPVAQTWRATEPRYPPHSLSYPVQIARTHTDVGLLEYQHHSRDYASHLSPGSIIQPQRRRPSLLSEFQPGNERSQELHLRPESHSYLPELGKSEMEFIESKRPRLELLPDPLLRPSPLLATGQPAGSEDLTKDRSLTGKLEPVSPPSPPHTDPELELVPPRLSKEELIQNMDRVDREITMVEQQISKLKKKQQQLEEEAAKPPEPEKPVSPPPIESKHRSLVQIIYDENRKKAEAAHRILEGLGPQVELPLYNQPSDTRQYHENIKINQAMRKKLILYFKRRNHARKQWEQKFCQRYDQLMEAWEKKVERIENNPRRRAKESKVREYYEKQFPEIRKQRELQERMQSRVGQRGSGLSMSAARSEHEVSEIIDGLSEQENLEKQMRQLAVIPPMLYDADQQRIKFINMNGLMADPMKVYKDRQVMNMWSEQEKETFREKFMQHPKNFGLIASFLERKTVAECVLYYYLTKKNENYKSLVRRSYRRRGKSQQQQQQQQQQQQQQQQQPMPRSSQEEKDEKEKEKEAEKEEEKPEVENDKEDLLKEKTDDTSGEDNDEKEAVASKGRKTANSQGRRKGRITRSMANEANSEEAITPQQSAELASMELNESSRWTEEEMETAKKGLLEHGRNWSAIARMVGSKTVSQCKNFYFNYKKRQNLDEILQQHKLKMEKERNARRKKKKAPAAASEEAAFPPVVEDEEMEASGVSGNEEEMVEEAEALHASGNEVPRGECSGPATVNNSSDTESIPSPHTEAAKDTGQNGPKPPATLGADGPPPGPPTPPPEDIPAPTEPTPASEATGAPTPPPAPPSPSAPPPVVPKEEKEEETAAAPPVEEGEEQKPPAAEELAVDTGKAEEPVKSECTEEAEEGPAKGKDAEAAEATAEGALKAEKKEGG", "test": "Human HDAC enzyme inhibitor Fluor-de-Lys assay, HDAC3/SMRT", "settings": "HDAC3/SMRT 0.3 nM enzyme, 20 μM substrate BML-KI104, 10 μM IP4, 3 h pre-incubation, 60 min reaction; read-out: HDAC3_IC50", "excerpt": "as §1, §2, §3, §4"}},
  "data": [
    {"smiles": "Cc1ccc2cc(-c3cnc([C@H](CSCCCC(=O)c4ncco4)NC(=O)[C@H]4CC45CCN(C)CC5)[nH]3)ccc2n1", "note": "[Compound 21, (1S)-6-methyl-N-[(1R)-1-[5-(2-methylquinolin-6-yl)-1H-imidazol-2-yl]-2-{[4-(1,3-oxazol-2-yl)-4-oxobutyl]sulfanyl}ethyl]-6-azaspiro[2.5]octane-1-carboxamide]", "values": [
      {"measurement": "IC50", "setting": "human HDAC1", "value": 1.5, "unit": "nM"},
      {"measurement": "IC50", "setting": "human HDAC2", "value": 2.9, "unit": "nM"},
      {"measurement": "IC50", "setting": "[1]", "value": 1.5, "unit": "nM"}
    ]}
  ]
}
